According to US20220280594A1, “APPLICATION OF POLYPEPTIDE OR DERIVATIVE THEREOF” (CHENGDU HUITAI BIOMEDICINE CO., LTD., priority 2019, published 2022):
Ends that are not written are not given here. PEG = not defined here

Key:
[1] = test system: human lung cancer cells (A549) subcutaneous xenograft; test: lung cancer subcutaneous xenograft animal model, intratumoral injection; assay type: in vivo, mice (BALB/c-nu/nu); details: intratumoral 5 mg/kg once every other day, 10 days; for Weight of tumor (g) (mean ± SD): control 1.45 ± 0.15; for Volume of tumor (mm^3) (mean ± SD): control 1269.32 ± 115.39
Procedure, shortened: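 Female BALB/c-nu/nu mice (4–6 weeks) inoculated subcutaneously with about 2×10^6 A549 cells; treatment started at tumour volume >100 mm^3. Peptides given intratumorally at 5 mg/kg every other day for 10 days (N1–N12) or 20 days (N13–N32); tumour weight and volume measured at dissection.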

vimentin = vimentin expression in SK-HEP-1 cells (ELISA); assay type: cell-based, human; details: SK-HEP-1, 10 μM, 24 hours, control group 1.2 ± 0.01
Protocol: (§1) SK-HEP-1 cells were cultured in vitro, cells in the logarithmic growth phase were collected, and the cells were seeded evenly in a 24-well plate at a density of 1-3×10^5 cells/well. The cells were cultured in a cell incubator for 4-5 h. PBS was added to the control group. PBS containing polypeptide or derivative thereof (N1-N12) was added to the treatment group. The final concentration of the polypeptide or derivative thereof in the well was 10 μM. After incubating for 24 hours, the cells were collected and the total protein was extracted. ELISA was used to detect the content of fibronectin in total protein.
The experimental method for testing the inhibition on the expression of vimentin in human liver adenocarcinoma cells (SK-HEP-1) by the polypeptide or derivative thereof (N1-N12) was as described in Example 19.

[2] = test system: human melanoma cells (A375); test: scratch assay, migration of A375 cells; assay type: cell-based; details: A375, 10 μM, 48 hours; control group 44.03 ± 6.21
Procedure, shortened: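 Monolayers scratched, washed with PBS and cultured 48 hours in 2% FBS medium with polypeptides N1-N54 at 10 μM or PBS control, three wells per group. Migration rate (%) = (original − current scratch width)/original width×100, from imaged scratch widths.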

[3] = test system: human pharyngeal squamous-cell carcinoma cells (Fadu); test: scratch assay, migration of Fadu cells; assay type: cell-based; details: 10 μM, 48 hours, control group 28.76 ± 4.08
Procedure, shortened: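 Confluent Fadu monolayers scratched, then cultured 48 h with 10 μM polypeptide in medium with 2% FBS; PBS control, triplicate wells. Migration rate (%) = (original − current scratch width)/original width × 100, from ≥3 images per well.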

[4] = effect on coagulation function in mice (ACT); assay type: in vivo, C57BL/6J mice; details: 200 mg/kg tail vein once a day until Day 24, blood on Day 25; control group 73.50 ± 7.15
Protocol: C57BL/6J mice were used as experimental subjects (purchased from Chengdu Dashuo Experimental Animal Co., Ltd., male, weighing 16-17 g). Sterile saline or peptide drugs were injected via the tail vein once a day until Day 24. The mice in the control group were injected with sterile saline, and the mice in the administration groups (N1-N12) were injected with polypeptide drugs (200 mg/kg). There were three experimental animals in each group. On Day 25, the eyeballs were removed and blood ([…]) was taken. The coagulation function of the mice was detected by the Abbott i-STAT blood gas analyzer with the ACT test card.

fibronectin = fibronectin expression in SK-HEP-1 cells (ELISA); assay type: cell-based, human; details: SK-HEP-1, 10 μM, 24 hours, control group 1.62 ± 0.09
Protocol: as §1

N-cadherin = N-cadherin expression in SK-HEP-1 cells (ELISA); assay type: cell-based, human; details: SK-HEP-1, 10 μM, 24 hours, control group 1.12 ± 0.03
Protocol: as §1
The experimental method for testing the inhibition on the expression of N-cadherin in human liver adenocarcinoma cells (SK-HEP-1) by the polypeptide or derivative thereof (N1-N12) was as described in Example 19.

[5] = test system: human pancreatic cancer cells (PANC-1) subcutaneous xenograft; test: pancreatic cancer subcutaneous xenograft animal model, intratumoral injection; assay type: in vivo, mice (BALB/c-nu/nu); details: PANC-1 xenograft, intratumoral 5 mg/kg once every other day, 25 days; for Weight of tumor (g) (mean ± SD): control 1.2 ± 0.11; for Volume of tumor (mm^3) (mean ± SD): control 1431.72 ± 174.33
Protocol: Experimental animals: 4-6 weeks old female immunodeficiency mice (BALB/c-nu/nu, Beijing Vital River Laboratory Animal Technology Co., Ltd.).
Subcutaneous xenograft animal model. The number of cells inoculated subcutaneously vin mice was about 2×10^6/200 μL. When the volume of the subcutaneous tumor was greater than 100 mm^3, the mice were randomly divided into groups and subjected to treatment. When the mass volume of the tumors in model control group reached 2000 mm^3 or the animal dies, the treatment ended. The animals were dissected, the tumors were taken out, and the weight and volume of the tumors were measured. During the period of the entire experiment, the mice were observed and the body weight was measured every other day.
The method used in the efficacy test on the pancreatic cancer subcutaneous xenograft animal model was as described in Example 5. The pancreatic cancer cells were human pancreatic cancer cells (PANC-1), and the route of administration was intratumoral injection. The experimental groups were model control group and polypeptide or derivative thereof treatment groups (N1-N12). The drug dosage of the N1-N12 treatment group was 5mg/kg, once every other day, and the treatment time was 25 days.

N2: SEQ ID NO: 1 with deletion of one amino acid (position 18) at the carboxyl terminal (YRVRFLAKENVTQDAED)
Weight of tumor (g) (mean ± SD) [1]: 0.86 ± 0.13 g
Volume of tumor (mm^3) (mean ± SD) [1]: 809.89 ± 129.93 mm^3
Relative protein level (mean ± SD, P), vimentin (vimentin): 0.91 ± 0.03, ****
Migration rate (%) (mean ± SD, P) [2]: 6.52 ± 1.25,*** %
Migration rate (%) (mean ± SD, P) [3]: 10.71 ± 2.30,** %
Activated clotting time (s) (mean ± SD) [4]: 74.82 ± 9.62 s
Relative protein level (mean ± SD, P), fibronectin (fibronectin): 1.23 ± 0.08,**
Relative protein level (mean ± SD, P), N-cadherin (N-cadherin): 0.93 ± 0.04,**
Weight of tumor (g) (mean ± SD) [5]: 0.72 ± 0.12 g
Volume of tumor (mm^3) (mean ± SD) [5]: 761.37 ± 150.52 mm^3

N9: SEQ ID NO: 1 with deletion of positions 15-18 and PEG modification at the amino terminal ({PEG}-YRVRFLAKENVTQD; reading uncertain)
Weight of tumor (g) (mean ± SD) [1]: 0.72 ± 0.09 g
Volume of tumor (mm^3) (mean ± SD) [1]: 781.14 ± 123.66 mm^3
Relative protein level (mean ± SD, P), vimentin (vimentin): 1.03 ± 0.05, **
Migration rate (%) (mean ± SD, P) [2]: 8.96 ± 2.46,*** %
Migration rate (%) (mean ± SD, P) [3]: 16.82 ± 3.57,* %
Activated clotting time (s) (mean ± SD) [4]: 72.09 ± 8.07 s
Relative protein level (mean ± SD, P), fibronectin (fibronectin): 1.33 ± 0.09,*
Relative protein level (mean ± SD, P), N-cadherin (N-cadherin): 0.73 ± 0.04,***
Weight of tumor (g) (mean ± SD) [5]: 0.5 ± 0.09 g
Volume of tumor (mm^3) (mean ± SD) [5]: 765.6 ± 105.04 mm^3

N5: SEQ ID NO: 1 with addition of one amino acid at the carboxyl terminal and deletion of positions 1-3 (RFLAKENVTQDAEDNC)
Weight of tumor (g) (mean ± SD) [1]: 0.69 ± 0.14 g
Volume of tumor (mm^3) (mean ± SD) [1]: 738.11 ± 167.03 mm^3
Relative protein level (mean ± SD, P), vimentin (vimentin): 0.87 ± 0.03, ****
Migration rate (%) (mean ± SD, P) [2]: 9.82 ± 3.84,*** %
Migration rate (%) (mean ± SD, P) [3]: 9.07 ± 2.08,*** %
Activated clotting time (s) (mean ± SD) [4]: 72.91 ± 8.04 s
Relative protein level (mean ± SD, P), fibronectin (fibronectin): 1.3 ± 0.11,*
Relative protein level (mean ± SD, P), N-cadherin (N-cadherin): 0.83 ± 0.04,***
Weight of tumor (g) (mean ± SD) [5]: 0.54 ± 0.1 g
Volume of tumor (mm^3) (mean ± SD) [5]: 696.52 ± 127.05 mm^3

N11: SEQ ID NO: 1 with deletion of positions 15-18 and 1-3 and PEG modification at the amino terminal ({PEG}-RFLAKENVTQD; reading uncertain)
Weight of tumor (g) (mean ± SD) [1]: 0.73 ± 0.08 g
Volume of tumor (mm^3) (mean ± SD) [1]: 756.57 ± 204.03 mm^3
Relative protein level (mean ± SD, P), vimentin (vimentin): 0.94 ± 0.05, ***
Migration rate (%) (mean ± SD, P) [2]: 11.54 ± 2.23,*** %
Migration rate (%) (mean ± SD, P) [3]: 19 ± 5.37,* %
Activated clotting time (s) (mean ± SD) [4]: 75.18 ± 7.99 s
Relative protein level (mean ± SD, P), fibronectin (fibronectin): 1.39 ± 0.01,*
Relative protein level (mean ± SD, P), N-cadherin (N-cadherin): 0.73 ± 0.04,***
Weight of tumor (g) (mean ± SD) [5]: 0.62 ± 0.12 g
Volume of tumor (mm^3) (mean ± SD) [5]: 785.02 ± 147.38 mm^3
